# Publication PMC9387934, “Randomized single oral dose phase 1 study of safety, tolerability, and pharmacokinetics of Iminosugar UV-4 Hydrochloride (UV-4B) in healthy subjects” (PLoS Neglected Tropical Diseases, 2022)
# Structures can show the parent of a compound that is named as a salt. Where two headings read alike, the source gives them in different places.
# Assay: Phase 1a single ascending dose study: UV-4 plasma concentrations and PK parameters (LC-MS/MS, noncompartmental)
# Type: in vivo
# Details: for Tmax: median; for AUC(0-t): read-out: AUC(0-8); for Vd/F: read-out: Vz/F
# Experimental: UV-4 ((2R,3R,4R,5S)-2-(hydroxymethyl)-1-(9-methoxynonyl)piperidine-3,4,5-triol, also called N-(9’-methoxynonyl)-1-deoxynojirimycin, or MON-DNJ) hydrochloride was evaluated in a first-in-human, randomized, single-center, double-blind, placebo-controlled, parallel group, single ascending dose Phase 1a clinical trial in healthy subjects (Figs 1 and 2, ClinicalTrials.gov Identifier NCT02061358 https://clinicaltrials.gov/ct2/show/NCT02061358). The primary objective was to determine the safety and tolerability of a single-ascending oral dose of UV-4 hydrochloride (Fig 3). […] The secondary objective was to determine PK parameters describing absorption and elimination of UV-4 following a single oral dose of UV-4 hydrochloride. Eight cohorts of eight subjects each were enrolled and completed the study. In each cohort, six subjects received UV-4 as the hydrochloride; two received placebo. Subjects were screened against study eligibility criteria up to four weeks (Days -28 to -2) before admission to the clinic (Day -1). Dosing was performed on an inpatient basis. Subjects remained in clinic for 48 hours post-dosing for PK sample collection and safety assessments and were discharged from the clinic on Day 3. Subjects returned to the clinic on Day 4 for additional safety assessments, then again on Day 9 ± 1 for a final follow-up visit.
# Eligible subjects were healthy males and females, age 18–45 years, with a body mass index between 18 and 30 kg/m^2 inclusive and a minimum body weight of 60 kg. Subjects were considered healthy based on medical history, physical exam, vital signs, 12-lead electrocardiogram (ECG), clinical laboratory tests (hematology, blood chemistry, urinalysis), viral serology, and drug and alcohol screening. Male and female subjects of childbearing potential were required to use adequate contraception over the course of the clinical trial. […] Only subjects who met all inclusion and none of the exclusion criteria prior to administration of the investigational product were enrolled into the study (no exemptions were granted). A total of 64 subjects were enrolled (eight cohorts of eight subjects each). In each of the eight cohorts, six subjects were randomized to receive a single dose of UV-4 (3 to 1000 mg, depending on cohort) as the hydrochloride salt, and two subjects to receive placebo. Cohort size of six active subjects was based on analysis that increasing cohort size above six in a first-in-human study gains little in the ability to observe a drug induced event, and results in observing more events that are not related to study drug. Two of the eight subjects in each cohort (sentinel subjects; one active and one placebo) received their doses at least 48 h before the remaining subjects in each cohort.
# On each day of use, bulk drug substance (UV-4B for solubilization, SAI Life Sciences Ltd. Telangana, India) was removed from a single-use container, weighed at the study center, and solubilized in 20 mL sterile water for injection (SWFI) (Hospira Inc. Illinois, United States of America). Weight of solid drug substance was converted to dose of UV-4 by applying purity and salt correction factor per pharmacy manual when preparing the dosing solution. UV-4B solution was administered orally with 10 mL of taste-masking agent, OraSweet-SF (Paddock Laboratories LLC, Minneapolis, United States of America) in a total volume of 30 mL, to assist in maintaining study blinding. Placebo was SWFI (20 mL) plus OraSweet-SF (10 mL). Concentrations and doses were calculated and expressed as the active free base form, UV-4. This methodology is consistent with USP<1121>, which recommends that the strength of a drug product or preparation is expressed in terms of the active moiety. Following consumption of active or placebo solution, the dosing container was rinsed with 50 mL of tap water also consumed by subjects. […]
# [1] = 3 mg single oral dose, Geo Mean
# [2] = 10 mg single oral dose, Ar Mean
# [3] = 10 mg single oral dose, Geo Mean
# [4] = 30 mg single oral dose, Ar Mean
# [5] = 30 mg single oral dose, Geo Mean
# [6] = 90 mg single oral dose, Ar Mean
# [7] = 90 mg single oral dose, Geo Mean
# [8] = 180 mg single oral dose, Ar Mean
# [9] = 180 mg single oral dose, Geo Mean
# [10] = 360 mg single oral dose, Ar Mean
# [11] = 360 mg single oral dose, Geo Mean
# [12] = 720 mg single oral dose, Ar Mean
# [13] = 720 mg single oral dose, Geo Mean
# [14] = 1000 mg single oral dose, Ar Mean
# [15] = 1000 mg single oral dose, Geo Mean
# [16] = both sexes, human, plasma, po, 3 mg, 3 mg single oral dose, Ar Mean
# [17] = both sexes, human, plasma, po, 3 mg, 3 mg single oral dose, Geo Mean
# [18] = both sexes, human, plasma, po, 10 mg, 10 mg single oral dose, Ar Mean
# [19] = both sexes, human, plasma, po, 10 mg, 10 mg single oral dose, Geo Mean
# [20] = both sexes, human, plasma, po, 30 mg, 30 mg single oral dose, Ar Mean
# [21] = both sexes, human, plasma, po, 30 mg, 30 mg single oral dose, Geo Mean
# [22] = both sexes, human, plasma, po, 90 mg, 90 mg single oral dose, Ar Mean
# [23] = both sexes, human, plasma, po, 90 mg, 90 mg single oral dose, Geo Mean
# [24] = both sexes, human, plasma, po, 180 mg, 180 mg single oral dose, Ar Mean
# [25] = both sexes, human, plasma, po, 180 mg, 180 mg single oral dose, Geo Mean
# [26] = both sexes, human, plasma, po, 360 mg, 360 mg single oral dose, Ar Mean
# [27] = both sexes, human, plasma, po, 360 mg, 360 mg single oral dose, Geo Mean
# [28] = both sexes, human, plasma, po, 720 mg, 720 mg single oral dose, Ar Mean
# [29] = both sexes, human, plasma, po, 720 mg, 720 mg single oral dose, Geo Mean
# [30] = both sexes, human, plasma, po, 1000 mg, 1000 mg single oral dose, Ar Mean
# [31] = both sexes, human, plasma, po, 1000 mg, 1000 mg single oral dose, Geo Mean
structure (smiles),measurement,setting,value
"COCCCCCCCCCN1C[C@H](O)[C@@H](O)[C@H](O)[C@H]1CO [UV-4B, N-(9’-methoxynonyl)-1-deoxynojirimycin hydrochloride]",AUC(0-inf),"3 mg single oral dose, Ar Mean",95.6 ng·h/mL
same,CL/F,"3 mg single oral dose, Ar Mean",32.1 L/h
same,Cmax,"3 mg single oral dose, Ar Mean",22.4 ng/mL
same,DNAUC(0-inf),"3 mg single oral dose, Ar Mean",31.9 ng·h/mL/mg
same,DNCmax,"3 mg single oral dose, Ar Mean",7.45 ng/mL/mg
same,t1/2,"3 mg single oral dose, Ar Mean",10.7 h
same,CL/F,[1],31.7 L/h
same,Cmax,[1],22.1 ng/mL
same,DNAUC(0-inf),[1],31.5 ng·h/mL/mg
same,DNCmax,[1],7.38 ng/mL/mg
same,t1/2,[1],10.3 h
same,Tmax,3 mg single oral dose,0.50 h
same,CL/F,[2],24.3 L/h
same,Cmax,[2],84.6 ng/mL
same,DNAUC(0-inf),[2],43.1 ng·h/mL/mg
same,DNCmax,[2],8.46 ng/mL/mg
same,t1/2,[2],12.0 h
same,CL/F,[3],23.8 L/h
same,Cmax,[3],82.6 ng/mL
same,DNAUC(0-inf),[3],42.0 ng·h/mL/mg
same,DNCmax,[3],8.26 ng/mL/mg
same,t1/2,[3],11.9 h
same,Tmax,10 mg single oral dose,1.00 h
same,CL/F,[4],24.0 L/h
same,Cmax,[4],293 ng/mL
same,DNAUC(0-inf),[4],42.0 ng·h/mL/mg
same,DNCmax,[4],9.76 ng/mL/mg
same,t1/2,[4],10.0 h
same,CL/F,[5],23.9 L/h
same,Cmax,[5],289 ng/mL
same,DNAUC(0-inf),[5],41.8 ng·h/mL/mg
same,DNCmax,[5],9.64 ng/mL/mg
same,t1/2,[5],9.98 h
same,Tmax,30 mg single oral dose,0.50 h
same,CL/F,[6],24.5 L/h
same,Cmax,[6],946 ng/mL
same,DNAUC(0-inf),[6],41.4 ng·h/mL/mg
same,DNCmax,[6],10.5 ng/mL/mg
same,t1/2,[6],10.4 h
same,CL/F,[7],24.3 L/h
same,Cmax,[7],900 ng/mL
same,DNAUC(0-inf),[7],41.1 ng·h/mL/mg
same,DNCmax,[7],10.0 ng/mL/mg
same,t1/2,[7],10.2 h
same,Tmax,90 mg single oral dose,0.50 h
same,CL/F,[8],25.4 L/h
same,Cmax,[8],2150 ng/mL
same,DNAUC(0-inf),[8],39.5 ng·h/mL/mg
same,DNCmax,[8],12.0 ng/mL/mg
same,t1/2,[8],8.71 h
same,CL/F,[9],25.4 L/h
same,Cmax,[9],2060 ng/mL
same,DNAUC(0-inf),[9],39.4 ng·h/mL/mg
same,DNCmax,[9],11.5 ng/mL/mg
same,t1/2,[9],8.66 h
same,Tmax,180 mg single oral dose,0.75 h
same,CL/F,[10],26.5 L/h
same,Cmax,[10],4570 ng/mL
same,DNAUC(0-inf),[10],38.4 ng·h/mL/mg
same,DNCmax,[10],12.7 ng/mL/mg
same,t1/2,[10],8.14 h
same,CL/F,[11],26.3 L/h
same,Cmax,[11],4490 ng/mL
same,DNAUC(0-inf),[11],38.1 ng·h/mL/mg
same,DNCmax,[11],12.5 ng/mL/mg
same,t1/2,[11],8.11 h
same,Tmax,360 mg single oral dose,0.50 h
same,CL/F,[12],22.1 L/h
same,Cmax,[12],9930 ng/mL
same,DNAUC(0-inf),[12],45.7 ng·h/mL/mg
same,DNCmax,[12],13.8 ng/mL/mg
same,t1/2,[12],8.19 h
same,CL/F,[13],22.0 L/h
same,Cmax,[13],9760 ng/mL
same,DNAUC(0-inf),[13],45.5 ng·h/mL/mg
same,DNCmax,[13],13.6 ng/mL/mg
same,t1/2,[13],8.18 h
same,Tmax,720 mg single oral dose,0.75 h
same,CL/F,[14],23.6 L/h
same,Cmax,[14],13100 ng/mL
same,DNAUC(0-inf),[14],43.1 ng·h/mL/mg
same,DNCmax,[14],13.1 ng/mL/mg
same,t1/2,[14],8.83 h
same,CL/F,[15],23.4 L/h
same,Cmax,[15],13000 ng/mL
same,DNAUC(0-inf),[15],42.8 ng·h/mL/mg
same,DNCmax,[15],13.0 ng/mL/mg
same,t1/2,[15],8.58 h
same,Tmax,1000 mg single oral dose,1.00 h
same,AUC(0-t),[16],56.5 ng·h/mL
same,Vd/F,[16],491 L
same,AUC(0-t),[17],55.9 ng·h/mL
same,AUC(0-inf),"both sexes, human, plasma, po, 3 mg, 3 mg single oral dose, Geo Mean, read-out: AUC(0-inf)",94.6 ng·h/mL
same,Vd/F,[17],470 L
same,AUC(0-t),[18],271 ng·h/mL
same,AUC(0-inf),"both sexes, human, plasma, po, 10 mg, 10 mg single oral dose, Ar Mean, read-out: AUC(0-inf)",431 ng·h/mL
same,Vd/F,[18],424 L
same,AUC(0-t),[19],265 ng·h/mL
same,AUC(0-inf),"both sexes, human, plasma, po, 10 mg, 10 mg single oral dose, Geo Mean, read-out: AUC(0-inf)",420 ng·h/mL
same,Vd/F,[19],409 L
same,AUC(0-t),[20],901 ng·h/mL
same,AUC(0-inf),"both sexes, human, plasma, po, 30 mg, 30 mg single oral dose, Ar Mean, read-out: AUC(0-inf)",1260 ng·h/mL
same,Vd/F,[20],349 L
same,AUC(0-t),[21],896 ng·h/mL
same,AUC(0-inf),"both sexes, human, plasma, po, 30 mg, 30 mg single oral dose, Geo Mean, read-out: AUC(0-inf)",1260 ng·h/mL
same,Vd/F,[21],344 L
same,AUC(0-t),[22],2800 ng·h/mL
same,AUC(0-inf),"both sexes, human, plasma, po, 90 mg, 90 mg single oral dose, Ar Mean, read-out: AUC(0-inf)",3730 ng·h/mL
same,Vd/F,[22],365 L
same,AUC(0-t),[23],2790 ng·h/mL
same,AUC(0-inf),"both sexes, human, plasma, po, 90 mg, 90 mg single oral dose, Geo Mean, read-out: AUC(0-inf)",3700 ng·h/mL
same,Vd/F,[23],358 L
same,AUC(0-t),[24],5910 ng·h/mL
same,AUC(0-inf),"both sexes, human, plasma, po, 180 mg, 180 mg single oral dose, Ar Mean, read-out: AUC(0-inf)",7110 ng·h/mL
same,Vd/F,[24],321 L
same,AUC(0-t),[25],5880 ng·h/mL
same,AUC(0-inf),"both sexes, human, plasma, po, 180 mg, 180 mg single oral dose, Geo Mean, read-out: AUC(0-inf)",7090 ng·h/mL
same,Vd/F,[25],317 L
same,AUC(0-t),[26],11900 ng·h/mL
same,AUC(0-inf),"both sexes, human, plasma, po, 360 mg, 360 mg single oral dose, Ar Mean, read-out: AUC(0-inf)",13800 ng·h/mL
same,Vd/F,[26],309 L
same,AUC(0-t),[27],11800 ng·h/mL
same,AUC(0-inf),"both sexes, human, plasma, po, 360 mg, 360 mg single oral dose, Geo Mean, read-out: AUC(0-inf)",13700 ng·h/mL
same,Vd/F,[27],308 L
same,AUC(0-t),[28],29100 ng·h/mL
same,AUC(0-inf),"both sexes, human, plasma, po, 720 mg, 720 mg single oral dose, Ar Mean, read-out: AUC(0-inf)",32900 ng·h/mL
same,Vd/F,[28],260 L
same,AUC(0-t),[29],28900 ng·h/mL
same,AUC(0-inf),"both sexes, human, plasma, po, 720 mg, 720 mg single oral dose, Geo Mean, read-out: AUC(0-inf)",32800 ng·h/mL
same,Vd/F,[29],259 L
same,AUC(0-t),[30],38700 ng·h/mL
same,AUC(0-inf),"both sexes, human, plasma, po, 1000 mg, 1000 mg single oral dose, Ar Mean, read-out: AUC(0-inf)",43100 ng·h/mL
same,Vd/F,[30],299 L
same,AUC(0-t),[31],38500 ng·h/mL
same,AUC(0-inf),"both sexes, human, plasma, po, 1000 mg, 1000 mg single oral dose, Geo Mean, read-out: AUC(0-inf)",42800 ng·h/mL
same,Vd/F,[31],290 L
